From patent publication US20220146526A1, “METHOD FOR EVALUATING SAMPLE, ANALYSIS METHOD, METHOD FOR DETECTING DEGRADED SAMPLE, MARKER FOR DETECTING DEGRADED BLOOD PLASMA SAMPLE, AND MARKER FOR DETECTING DEGRADED SERUM SAMPLE” (SHIMADZU CORPORATION, priority 2019, published 2022)

Assays:
Type in all cases: physicochemical, human
[1] = GC/MS of blood plasma sample: time from blood collection to centrifugation (Table A); conditions: for Increase or decrease: detection intensity; for Increase or decrease / Rate of increase or decrease: blood collection to centrifugation; for Rate of increase or decrease (second value, decrease) / Rate of increase or decrease (first value, increase): different from individual to individual, relative to 1 at 15 minutes, collection to centrifugation; for Rate of increase or decrease (second value, decrease): individuals with decrease; for Rate of increase or decrease (first value, increase): individuals with increase; for Rate of increase or decrease: detection intensity relative to 1 at 15 minutes
Method in brief: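 Read-out is MRM detection intensity by electron-ionization GC/MS on a BPX5 column after methoxymation and trimethylsilylation, expressed relative to a 15-minute collection-to-centrifugation interval. Plasma was prepared from EDTA blood held at 4° C and spun at 4° C, 3000 rpm for 15 minutes, then frozen.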

[2] = GC/MS of blood plasma sample: time from blood collection to cooling of blood (Table B); set-up: key to Rate of increase or decrease / Rate of increase or decrease (first value, increase): detection intensity relative to 1 at cooling time ≤1 min; conditions: for Rate of increase or decrease: detection intensity relative to 1 at 1 minute or less, blood collection to cooling 5 minutes; for Increase or decrease: detection intensity, blood collection to cooling 5 minutes or more vs 1 minute or less
Method in brief: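 Blood drawn at room temperature into EDTA tubes, mixed, then cooled at 4° C. within 1 minute or less versus 5 minutes or more before centrifugation (4° C., 3000 rpm, 15 minutes). Plasma was frozen, methoxymated and trimethylsilylated, and analysed by EI GC/MS in MRM mode. Values are detection intensity relative to the ≤1 minute condition.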

[3] = GC/MS of blood plasma sample: number of times of freezing and thawing (Table C); conditions: for Increase or decrease: detection intensity; for Rate of increase or decrease (second value, decrease) / Rate of increase or decrease (first value, increase): different from individual to individual, relative to 1 at 2 times; for Rate of increase or decrease (second value, decrease): individuals with decrease; for Rate of increase or decrease (first value, increase): individuals with increase; for Rate of increase or decrease: detection intensity relative to 1 at 2 times
Method in brief: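 Values express detection intensity as a ratio to the 2-cycle freeze-thaw sample (=1), compared with 4, 6 and 10 cycles. Healthy-donor EDTA plasma, cooled at ≤1 min or ≥5 min, spun at 4 °C, 3000 rpm, 15 min. Derivatised by methoxymation/trimethylsilylation; GC-MS/MS in MRM mode with electron ionization.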

[4] = GC/MS of serum sample: time from blood collection to centrifugation (Table G); conditions: for Rate of increase or decrease: detection intensity relative to 1 at 15 minutes; for Rate of increase or decrease / Increase or decrease: blood collection to centrifugation; for Increase or decrease: detection intensity; for Rate of increase or decrease (second value, decrease) / Rate of increase or decrease (first value, increase): different from individual to individual, relative to 1 at 15 minutes, collection to centrifugation; for Rate of increase or decrease (second value, decrease): individuals with decrease; for Rate of increase or decrease (first value, increase): individuals with increase
Method in brief: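 Values express detection intensity as a ratio to the sample centrifuged 15 minutes after blood collection (taken as 1). Serum was derivatized by methoxymation and trimethylsilylation, then analysed by electron-ionization GC/MS using multiple reaction monitoring on a BPX5 column ramped from 60 to 330° C.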

[5] = GC/MS of serum sample: time from centrifugation to isolation (Table H); set-up: key to Rate of increase or decrease / Rate of increase or decrease (first value, increase): detection intensity relative to 1 at 30 min centrifugation-to-isolation; conditions: for Rate of increase or decrease: detection intensity relative to 1 at 30 minutes; for Increase or decrease: detection intensity
Method in brief: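 Values are GC/MS (EI, MRM) detection intensities of methoxymated/trimethylsilylated serum, normalised to 1 for the 30-min sample. Serum was isolated 30 min, 1 h or 6 h after room-temperature centrifugation (3500 rpm, 5 min) of blood.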

[6] = GC/MS of serum sample: number of times of freezing and thawing (Table I); set-up: key to Rate of increase or decrease / Rate of increase or decrease (first value, increase): detection intensity relative to 2 freeze-thaw cycles = 1; conditions: for Rate of increase or decrease: detection intensity relative to 1 at 2 times
Method in brief: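 Detection intensities are ratios to the value after two freeze–thaw cycles, which is set as 1, compared against 4, 6 and 10 cycles. Analysis used methoxymation and trimethylsilylation derivatization, then GC/MS with EI ionization and multiple reaction monitoring on a BPX5 column. Serum came from blood held at room temperature and spun at 3500 rpm for 5 min.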

[7] = freezing and thawing 4 times vs 2 times
[8] = serum, GC/MS, freezing and thawing 4 times
[9] = detection intensity, serum, GC/MS, freezing and thawing 4 times vs 2 times

Compound | Increase or decrease ([1]; after 4 hours vs 15 minutes) | Rate of increase or decrease (second value, decrease) ([1]; after 4 hours) | Rate of increase or decrease (first value, increase) ([1]; after 4 hours) | Rate of increase or decrease [2] | Increase or decrease [2] | Increase or decrease [3, 7] | Rate of increase or decrease (second value, decrease) ([3]; freezing and thawing 4 times) | Rate of increase or decrease (first value, increase) ([3]; freezing and thawing 4 times) | Rate of increase or decrease ([4]; after 4 hours) | Increase or decrease ([4]; after 4 hours vs 15 minutes) | Rate of increase or decrease ([5]; after 1 hour) | Increase or decrease ([5]; after 1 hour vs 30 minutes) | Rate of increase or decrease [6, 8] | Increase or decrease [6, 9] | Increase or decrease ([4]; after 8 hours vs 15 minutes) | Rate of increase or decrease ([1]; after 4 hours) | further results
N[C@@H](CS(=O)O)C(=O)O [3-Sulfinoalanine] | Different from individual | 0.32 | 1.88 | 0.61 | Decrease | Different from individual | 0.58 | 1.59 | 1.91 | Increase | 3.07 | Increase | 0.47 | Decrease |  |  | 
OC[C@H]1O[C@@H](O[C@H]2[C@H](O)[C@@H](O)C(O)O[C@@H]2CO)[C@H](O)[C@@H](O)[C@H]1O (stereo partly shown) [Lactose] |  |  |  | 0.56 | Decrease | Increase |  |  |  | Different from individual | 2.37 | Increase | 1.60 | Increase | Different from individual |  | Rate of increase or decrease ([1]; after 12 hours): 0.70; Increase or decrease ([1]; after 12 hours vs 15 minutes): Decrease; Rate of increase or decrease ([3]; freezing and thawing 4 times): 1.40; Rate of increase or decrease (second value, decrease) ([4]; after 4 hours): 0.62; Rate of increase or decrease (second value, decrease) ([4]; after 8 hours): 0.65; Rate of increase or decrease (first value, increase) ([4]; after 4 hours): 1.31; Rate of increase or decrease (first value, increase) ([4]; after 8 hours): 3.99; Rate of increase or decrease ([5]; after 6 hours): 1.43; Increase or decrease ([5]; after 6 hours vs 30 minutes): Increase; Rate of increase or decrease ([6]; serum, GC/MS, freezing and thawing 6 times): 1.33; Increase or decrease ([6]; detection intensity, serum, GC/MS, freezing and thawing 6 times vs 2 times): Increase
O=C(O)/C=C\C(=O)O [Maleic acid] | Different from individual | 0.47 | 1.75 |  | Different from individual |  |  |  | 1.65 | Increase | 1.43 | Increase | 2.62 | Increase |  |  | Rate of increase or decrease (second value, decrease) ([2]; different from individual to individual, individuals with decrease, relative to 1 at 1 minute or less, collection to cooling 5 minutes): 0.54; Rate of increase or decrease (first value, increase) ([2]; different from individual to individual, individuals with increase, relative to 1 at 1 minute or less, collection to cooling 5 minutes): 1.38; Rate of increase or decrease ([3]; freezing and thawing 10 times): 2.12; Increase or decrease ([3]; freezing and thawing 10 times vs 2 times): Increase
O=C(O)CCCCCCCC(=O)O [Azelaic acid] | Increase |  |  | 0.67 | Decrease | Different from individual | 0.66 | 1.45 | 0.51 | Decrease | 1.71 | Increase |  |  |  | 2.03 | Rate of increase or decrease ([6]; 10 times of freezing and thawing): 9.39; Number of times when compound is affected ([6]; serum sample, GC/MS, detection intensity changed by 30% or more vs 2 times of freezing and thawing): 10 times; Increase or decrease ([6]; serum sample, GC/MS, detection intensity vs 2 times of freezing and thawing): Increase
O[C@@H]1[C@@H](O)[C@@H]2OC[C@@H](O2)[C@H]1O [1,6-Anhydroglucose] | Increase |  |  | 0.62 | Decrease | Different from individual | 0.42 | 3.49 |  |  | 2.25 | Increase | 2.25 | Increase | Decrease | 1.42 | Rate of increase or decrease ([4]; after 8 hours): 0.62
Oc1ccccn1 [2-Hydroxypyridine] | Decrease |  |  | 0.59 | Decrease | Different from individual | 0.54 | 2.48 | 2.55 | Increase | 1.44 | Increase | 0.50 | Decrease |  | 0.57 | 
